Laboratory results reported in US9701655B2, “Functionalised benzopyran compounds and use thereof” (NOVOGEN LIMITED, priority 2014, dated 2017).

Tests used:
Type in all cases: cell-based
A549 = assay: Proliferation of somatic cancer cells (cell-titre luminescence), A549; conditions: Homo sapiens, A549, 72 h, Lung (NSCLC) A549, 72 hrs
Experimental: (§1) The ability of selected compounds to inhibit the proliferation of cancer cells representative of melanoma, non-small cell lung cancer, colorectal cancer, breast cancer (Estogen Receptor negative (ER−ve, TNBC−R−ve, Progesterone Receptor negative and negative for EGFR amplification), prostate cancer, liver cancer, ovarian cancer, pancreatic cancer and brain cancer was studied. A pre-determined number of cells as calculated from cell growth assays for each of the cell lines employed were seeded into their respective culture mediums (using ATCC culture parameters—http://wwvv.atcc.org) and cultured for 24 hrs at 37° C. and 5% CO2 in 96-well culture plates. Once attached, each cell line was then exposed to various concentrations of each respective analogue (30, 3, 0.3 and 0.03 μM), cultured for a further 72 hrs and exposed to cell-titre luminescent reagent (100μ/well) for a further 30 mins). Luminescence was captured using an EnVision multilabel reader and the data for each analogue concentration compared against control. Semi-log plots of Percent of Control versus concentration were prepared and IC50 determined using linear regression analysis. In Table 6, compounds Comp 1, Comp 2 and Comp 3 are comparative compounds having the following structures: […]

HT-29 = assay: Proliferation of somatic cancer cells (cell-titre luminescence), HT-29; conditions: Homo sapiens; Colorectal HT-29, 72 hrs
Experimental: as §1

MDA-MB-231 = assay: Proliferation of somatic cancer cells (cell-titre luminescence), MDA-MB-231; conditions: Homo sapiens, MDA-MB-231, 72 h, Breast MDA-MB-231, 72 hrs
Experimental: as §1

MCF-7 = assay: Proliferation of somatic cancer cells (cell-titre luminescence), MCF-7; conditions: Homo sapiens, MCF7; Breast MCF-7, 72 hrs
Experimental: as §1

SK-Mel-28 = assay: Proliferation of somatic cancer cells (cell-titre luminescence), SK-Mel-28; conditions: Homo sapiens; Melanoma SK-Mel-28, 72 hrs
Experimental: as §1

HepG2 = assay: Proliferation of somatic cancer cells (cell-titre luminescence), HepG2; conditions: Homo sapiens, HepG2, 72 h, Liver HepG2, 72 hrs
Experimental: as §1

PC3 = assay: Proliferation of somatic cancer cells (cell-titre luminescence), PC3; conditions: Homo sapiens, PC-3, 72 h, Prostate PC3, 72 hrs
Experimental: as §1

DU145 = assay: Proliferation of somatic cancer cells (cell-titre luminescence), DU145; conditions: Homo sapiens, DU-145, 72 h, Prostate DU145, 72 hrs
Experimental: as §1

| Compound | IC50 (A549) [nM] | IC50 (HT-29) [nM] | IC50 (MDA-MB-231) [nM] | IC50 (MCF-7) [nM] | IC50 (SK-Mel-28) [nM] | IC50 (HepG2) [nM] | IC50 (PC3) [nM] | IC50 (DU145) [nM] |
| --- | --- | --- | --- | --- | --- | --- | --- | --- |
| CCCc1c(O)ccc2c1OCC(c1cc(OC)c(O)c(OC)c1)C2c1ccc(O)c(F)c1 (centres unmarked) [Compound 16, 4-(3-fluoro-4-hydroxyphenyl)-3-(4-hydroxy-3,5-dimethoxyphenyl)-8-propylchroman-7-ol] | 5450 | 2650 | 9800 | 5600 | 16100 | 5290 | 2220 | 2780 |
| CCc1cc2c(cc1O)OCC(c1cc(OC)c(O)c(OC)c1)C2c1ccc(O)c(F)c1 (centres unmarked) [Compound 18, 4-(3-fluoro-4-hydroxyphenyl)-3-(4-hydroxy-3,5-dimethoxyphenyl)-6-ethylchroman-7-ol] | 5540 | 12700 | 7280 | 6200 | 6430 | 1140 | 2120 | 1590 |
| COc1cc(C2COc3cc(O)cc(F)c3C2c2ccc(O)c(F)c2)cc(OC)c1O (centres unmarked) [Compound 19, 4-(3-fluoro-4-hydroxyphenyl)-3-(4-hydroxy-3,5-dimethoxyphenyl)-5-fluorochroman-7-ol] | 4840 | 2340 | 8620 | 300 | 2300 | 320 | 340 | 210 |
| COc1cc(C2COc3cc(O)c(Cl)cc3C2c2ccc(O)c(F)c2)cc(OC)c1O (centres unmarked) [Compound 20, 4-(3-fluoro-4-hydroxyphenyl)-3-(4-hydroxy-3,5-dimethoxyphenyl)-6-chlorochroman-7-ol] | 4210 | 3250 | 8500 | 1000 | 960 | 190 | 850 | 260 |
| COc1cc(C2COc3c(ccc(O)c3C)C2c2ccc(N)cc2)cc(OC)c1O (centres unmarked) [Compound 21, 4-(4-aminophenyl)-3-(4-hydroxy-3,5-dimethoxyphenyl)-8-methylchroman-7-ol] | 2660 | 3020 | 5670 | 600 | 700 | 350 | 420 | 640 |
| CCNc1ccc(C2c3ccc(O)c(C)c3OCC2c2cc(OC)c(O)c(OC)c2)cc1 (centres unmarked) [Compound 22, 4-(4-ethylaminophenyl)-3-(4-hydroxy-3,5-dimethoxyphenyl)-8-methylchroman-7-ol] | 8870 | 2420 | 12600 | 1600 | 1220 | 670 | 620 | 450 |
| COc1cc(C2COc3c(ccc(O)c3C)C2c2ccc(O)c(Cl)c2)cc(OC)c1O (centres unmarked) [Compound 24, 4-(3-chloro-4-hydroxyphenyl)-3-(4-hydroxy-3,5-dimethoxyphenyl)-8-methylchroman-7-ol] | 2060 | > 30000 | 4400 | > 30000 | > 30000 | > 30000 | 200 | 300 |
| COc1cc(C2COc3c(ccc(O)c3C)C2c2ccc3c(c2)OCO3)cc(OC)c1O (centres unmarked) [Compound 32, 4-(3,4-methylenedioxyphenyl)-3-(4-hydroxy-3,5-dimethoxyphenyl)-8-methylchroman-7-ol] | 11800 | 3560 | 25300 | 2200 | 2060 | 1210 | 1420 | 950 |
| CCc1cc2c(c(C)c1O)OCC(c1cc(C)c(O)c(C)c1)=C2c1ccc(O)c(C)c1 [Compound 38, 4-(3-methyl-4-hydroxyphenyl)-6-ethyl-8-methyl-3-(4-hydroxy-3,5-dimethylphenyl)-2H-chromen-7-ol] | 2600 |  | 23100 |  | > 30000 |  | 1400 | 5510 |
| CCc1cc2c(c(C)c1O)OCC(c1cc(C)c(O)c(C)c1)=C2c1ccc(O)cc1F [Compound 40, 4-(2-fluoro-4-hydroxyphenyl)-6-ethyl-8-methyl-3-(4-hydroxy-3,5-dimethylphenyl)-2H-chromen-7-ol] | 1910 |  | 14100 |  | > 30000 |  | 1310 | 3020 |
